These results are taken from patent US8440656B2, “Methods of treating pulmonary diseases and disorders by modulating calcium/calmodulin dependent protein kinase II activity” (University of Iowa Research Foundation, priority 2009, dated 2013).

The IC50 is the point on the concentration scale where inhibition reaches its midpoint.

Each structure is given as a SMILES string. Where two headings read alike, the source gives them in different places. Bounds are passed on as bounds.

The target of one assay is CaMKIIδ (Homo sapiens, UniProt Q13557). The following applies: cited from earlier work.
In assay [1] the test system is ovalbumin-sensitized C6B2 mice (asthma model). The experiment in a line: Ovalbumin-sensitized mouse asthma model, intranasal KN-93. In kind it is in vivo. The note with it: for airway resistance (Flexivent) on Methacholine challenge: KN93 100 mM intranasal during ovalbumin inhalations, at 50 and 100 μg/ml Methacholine, p<0.05, vs untreated; for Bronchoalveolar lavage eosinophils: KN93 intranasal, compared with untreated control mice. How it is done: FIG. 4. Effects of inhaled KN-93 on asthma. (A) C6B2 mice were sensitized by two i.p. injections of ovalbumin, followed by three 30 min inhalations of ovalbumin in the presence or absence of the CaMKII inhibitor KN93 (100 μM) intranasal. Airway reactivity was determined by Methacholine challenge using the Flexivent-measured airway resistance as the readout. (B) Bronchoalveolar lavage eosinophils in mice treated with KN 93 compared with untreated control mice.
In order to test the concept that CaMKII inhibition can reduce asthma symptoms, a validated asthma model was utilized. This model induces airway inflammation and hyper-reactivity by intra-peritoneal sensitization and inhalational challenge with the experimental allergen, ovalbumin. The “asthmatic” mice are then characterized by a graded inhalational challenge protocol using aerosolized methacholine. (See Jain et al., 2003). This approach is similar to that used in humans with clinical asthma.
C6B2 mice were sensitized by two i.p. injections of ovalbumin, followed by three 30 min inhalations of ovalbumin in the presence or absence of the CaMKII inhibitor KN93 (100 mM) intranasal. Airway reactivity was determined by Methacholine challenge using the Flexivent-measured airway resistance as the readout. […] (* p<0.05, n=4 per group) (FIG. 4A). Bronchoalveolar lavage eosinophils (a measure of allergic airway inflammation) were reduced in mice treated with KN 93 compared with untreated control mice (FIG. 4B).

Chain of CaMKIIδ (Q13557 whole entry): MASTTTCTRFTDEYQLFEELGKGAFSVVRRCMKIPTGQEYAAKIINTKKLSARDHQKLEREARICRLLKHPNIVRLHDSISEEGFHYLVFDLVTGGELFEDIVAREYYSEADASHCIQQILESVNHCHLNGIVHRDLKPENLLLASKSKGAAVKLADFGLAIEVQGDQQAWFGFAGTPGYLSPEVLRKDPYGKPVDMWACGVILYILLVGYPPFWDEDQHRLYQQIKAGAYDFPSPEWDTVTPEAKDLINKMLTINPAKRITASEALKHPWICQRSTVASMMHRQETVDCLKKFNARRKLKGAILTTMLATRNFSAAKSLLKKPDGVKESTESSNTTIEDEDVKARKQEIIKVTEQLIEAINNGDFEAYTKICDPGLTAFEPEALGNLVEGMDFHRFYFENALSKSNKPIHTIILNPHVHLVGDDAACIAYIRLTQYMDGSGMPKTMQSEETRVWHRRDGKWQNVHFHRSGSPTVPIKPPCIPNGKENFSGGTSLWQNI

`NCCCn1cc(C2=C(c3ccc4ccccc4n3)C(=O)NC2=O)c2ccccc21` [Compound 14f]: the IC50 on CaMKIIδ is above 20 µM. On to `CN1C(=O)C(c2c[nH]c3ccc(Br)cc23)=C(c2cn(CCCN)c3ccccc23)C1=O` [Compound 16t], for which the IC50 at CaMKIIδ was above 20 µM. For the molecule `NCCCn1cc(C2=C(c3csc4ccccc34)C(=O)NC2=O)c2ccccc21` [Compound 2], the IC50 on CaMKIIδ (old, read-out: IC50 (μM) old) is below 0.039 µM. Turning to `CC(C)(C)OC(=O)NCCCn1cc(C2=C(c3ccccc3)C(=O)NC2=O)c2ccccc21` [Compound 13g], the IC50 on CaMKIIδ is above 20 µM. `CC(C)(C)OC(=O)NCCCn1cc(C2=C(c3cccs3)C(=O)NC2=O)c2ccccc21` [Compound 13l]: the IC50 at CaMKIIδ is above 20 µM. Turning to `CC(C)(C)OC(=O)NCCCn1cc(C2=C(c3csc4ccccc34)C(=O)NC2=O)c2ccccc21` [Compound 13b], at CaMKIIδ, the IC50 was above 20 µM. For the molecule `COc1ccc(S(=O)(=O)N(CCO)c2ccccc2CN(C)C/C=C/c2ccc(Cl)cc2)cc1` [KN-93], the “airway resistance (Flexivent) on Methacholine challenge” value was “reduced airway resistance measurements” in assay [1] and “significant reduction” in assay [1] (listed as KN93). In addition, the figures for the Bronchoalveolar lavage eosinophils result in assay [1] and in assay [1] (listed as KN 93) were “reduced eosinophils” and “reduced”, respectively.
